# ChEMBL document CHEMBL5321251, “Visible light-activated prodrug system with a novel heavy-atom-free photosensitizer” (Bioorg Med Chem Lett, 2023)
# Active and inactive are the calls of the source. The rule behind the calls is not given here.
# How the values were obtained:
# HeLa [1] = assay: Cytotoxicity against human HeLa cells assessed as inhibition of cell growth pre-treated with compound for 3 hrs followed by 620/25 nm red light irradiation for 30 mins measured after 72 hrs by CCK-8 assay; assay type: functional, cell-based; conditions: for IC50: light or radiation study
# [2] = Photoactivation of the compound assessed as photocleavage in the absence of 620/25 nm red light irradiation measured after 2 hrs by LC-MS analysis
# [3] = Photoactivation of the compound assessed as photocleavage in the presence of 620/25 nm red light irradiation measured after 30 mins by LC-MS analysis; conditions: 0.5 h
# [4] = Photoactivation of the compound assessed as photocleavage in the presence of 620/25 nm red light irradiation measured after 2 hrs by LC-MS analysis
# [5] = Photoactivation of the compound assessed as photocleavage in the presence of 620/25 nm red light irradiation by LC-MS analysis
# [6] = Photoactivation of the compound assessed as photocleavage in the presence of 520/25 nm green light irradiation by LC-MS analysis
# HeLa [7] = assay: Cytotoxicity against human HeLa cells assessed as inhibition of cell growth pre-treated with compound for 3 hrs measured after 72 hrs in dark condition by CCK-8 assay; assay type: functional, cell-based; conditions: time 75.0 hrs
Drug metabolism [2],Drug metabolism [3] [%],Drug metabolism [5],Drug metabolism [6],SMILES,IC50 (HeLa [1]) [nM],Drug metabolism [4] [%],Drug metabolism (HeLa [1]; time 75.5 hrs),Activity (HeLa [7])
Metabolite_Notdetected,50,,,COc1ccc(/C=C\c2cc(OC)c(OC)c(OC)c2)cc1OC(=O)/C=C/N1CCC(COC(=O)CN2C(=S)c3cc4ccc(N(C)C)cc4cc3C2=S)CC1,14.5,< 20,,
,,Metabolite_Notdetected,,CC(=O)O[C@H]1C(=O)[C@@]2(C)[C@H]([C@H](OC(=O)c3ccccc3)[C@]3(O)C[C@H](OC(=O)[C@H](OC(=O)/C=C/N4CCC(COC(=O)CN5C(=O)c6cc7ccc(N(C)C)cc7cc6C5=O)CC4)[C@@H](NC(=O)c4ccccc4)c4ccccc4)C(C)=C1C3(C)C)[C@]1(OC(C)=O)CO[C@@H]1C[C@@H]2O,,,Metabolite not detected,
Metabolite_Notdetected,80,,Metabolite_Detected,CC(=O)O[C@H]1C(=O)[C@@]2(C)[C@H]([C@H](OC(=O)c3ccccc3)[C@]3(O)C[C@H](OC(=O)[C@H](OC(=O)/C=C/N4CCC(COC(=O)CN5C(=S)c6cc7ccc(N(C)C)cc7cc6C5=S)CC4)[C@@H](NC(=O)c4ccccc4)c4ccccc4)C(C)=C1C3(C)C)[C@]1(OC(C)=O)CO[C@@H]1C[C@@H]2O,7.2,,,inactive

# Second part, the compound before the results:
SMILES,Drug metabolism [2],Drug metabolism [3] [%],Drug metabolism [5],Drug metabolism [6],IC50 (HeLa [1]) [nM],Drug metabolism [4] [%],Drug metabolism (HeLa [1]; time 75.5 hrs),Activity (HeLa [7])
CCc1c2c(nc3ccc(OC(=O)/C=C/N4CCC(COC(=O)CN5C(=S)c6cc7ccc(N(C)C)cc7cc6C5=S)CC4)cc13)-c1cc3c(c(=O)n1C2)COC(=O)[C@]3(O)CC,Metabolite_Notdetected,50,,,84,< 20,,
CC(=O)O[C@H]1C(=O)[C@@]2(C)[C@H]([C@H](OC(=O)c3ccccc3)[C@]3(O)C[C@H](OC(=O)[C@H](O)[C@@H](NC(=O)c4ccccc4)c4ccccc4)C(C)=C1C3(C)C)[C@]1(OC(C)=O)CO[C@@H]1C[C@@H]2O [PACLITAXEL],,,,,13.2,,,
